Experimental data reported in patent US20110256579A1, “Method for Verifying and/or Identifying Hormonally Effective Substances” (TECHNISCHE UNIVERSITAET DRESDEN, priority 2008, published 2011).

Test system: surface receptors of the a-yeast strain
Assay: Shmoo effect positive control with purified α-factor
Type: cell-based, Saccharomyces cerevisiae
Conditions: BY4741 MATa p423GPD-AR1, p426PGK-MFα1; purified α-factor added
Procedure: The recognition of the α-factor (yeast pheromone) by surface receptors effects inter alia a directed growth (shmoo effect) of the yeast cells toward the source of the pheromone. Under natural conditions this serves for subsequent fusion with the yeast cell of the opposite mating type.
To the positive control purified α-factor is added. […] Based on this control, the androgen-independent induction of the yeast cells can be checked.

α-factor
directed growth (shmoo effect) of the yeast cells: Directed growth of the yeast cells is observed
